Reference: patent US10653691B2, “Method of promoting remyelination” (Case Western Reserve University, priority 2013, dated 2020)

Assays:
glucocorticoid receptor = assay: Western blot of glucocorticoid receptor phosphorylation at Ser220 in OPCs; assay type: cell-based, mouse; settings: OPCs treated for 1 h
Procedure: EpiSC-derived OPCs were seeded into poly-Lornithine/laminin coated six-well plates and allowed to attach for 2 h in DMEM/F12 without additional factors. Cells were treated with indicated inhibitors or DMSO for 1 h-SCH772984 (ChemieTek, 1 mM), SB590885 (Tocris, 10 nM), LY294002 (Tocris, 10 μM), and PD0325901 (Stemgent, 1 μM). Cells were then stimulated with drug or FGF2 (R&DSystems; 20 ng ml^−1) for 1 h and then lysed in 200 μL RIPA buffer (0.15 M NaCl, 0.05M Tris, pH=8.0, 1 mM EDTA, 1% Triton X-100, 0.1% SDS, 10% glycerol, HALT protease and phosphatase inhibitor (Thermo Fisher) added just before use) and incubated on ice for 20 min. Lysates were centrifuged at 4° C. and supernatant collected. Protein concentrations were determined by Pierce BCA protein assay kit (Thermo Fisher). […] Blots were blocked in either 5% BSA (phosphoprotein) or 5% milk (non phosphoprotein).

EpiSC-derived OPCs = assay: Dose-response testing of drug hits (percent PLP1+ oligodendrocytes, cytotoxicity); assay type: cell-based, mouse; settings: seven point dose response; seen only at the highest 6.7 μM dose
Text: Dose-response testing of drug hits followed the same procedure with the following modifications to eliminate any artefacts in the primary screen: independently sourced drugs; a distinct batch of EpiSC-derived OPCs from a mouse of opposite sex; multi-dose testing; cytotoxicity analysis; an alternative marker of mature oligodendrocytes proteolipid protein 1 (PLP1, antibody clone AA3 provided by B. Trapp; 1:5,000); and an alternative high content assay endpoint parameter (percentage of oligodendrocytes differentiated instead of process intensity and length parameters). […]
For the 5 μM in vitro screen, stained plates were imaged on the Opera confocal imaging system (PerkinElmer) and a set of 24×10 fields were collected from each well, resulting in an average of 10,000 cells being scored per well. For the dose-response (6.7 μM, 5 μM, 3.3 μM, 1.7 μM, 666 nM, 500 nM, and 333 nM) in vitro assays, plates were imaged on the Operetta High Content Imaging and Analysis system (PerkinElmer) and a set of 14×20 fields captured from each well resulting in an average of 3,300 cells being scored per well. […] Each traced nucleus region was then expanded by 50% and cross-referenced with the mature myelin protein (MBP or PLP1) stain to identify oligodendrocyte nuclei, and from this the percentage of oligodendrocytes was calculated. […]

MOG35-55 EAE mouse model = assay: External validation of MOG35-55 EAE at an independent contract laboratory; assay type: in vivo; settings: 10 mg/kg, n=12 mice per group
Procedure: EAE was induced by immunizing 10-week-old C57BL/6 female mice with […] injection of […] complete Freund's adjuvant emulsion (Hooke Laboratories). One hour after immunization, mice were given 100 ng of pertussis toxin by 100 μl intraperitoneal injection. A second dose of pertussis toxin was administered the next day. EAE onset was monitored daily and scored using a clinical scale where 0 represented no abnormality; 1, limp tail; 2, limp tail and hind limb weakness; 3, hind limb paralysis; 4, hind limb paralysis and forelimb weakness; and 5, moribund. […] Once mice reached peak of disease ˜day 15; clinical score=3) they were randomized into treatment groups, and drug or vehicle (DMSO in saline) was administered intraperitoneally daily for 10 days (n=12-16 mice per group). […] Experimenters were blinded to the identity of the treatments and animals were scored daily. Cumulative disease scores for each animal were calculated during the treatment period, and a two-tailed t-test compared drug—with vehicle-treated groups. The extent of recovery for each animal was calculated as the difference between the peak disease score and the score at the end of each experiment, and a two-tailed t-test was used to compare each treatment with vehicle. […]

Row | Compound | phosphorylation of glucocorticoid receptor at Ser220 (glucocorticoid receptor) | toxicity and decrease in PLP1 positive cells in dose response (EpiSC-derived OPCs) | efficacy to reduce disease severity, independent validation (MOG35-55 EAE mouse model)
1 | C[C@H]1C[C@H]2[C@@H]3CCC4=CC(=O)C=C[C@]4(C)[C@@]3(F)[C@@H](O)C[C@]2(C)[C@@]1(O)C(=O)CCl [clobetasol] | increased the phosphorylation of glucocorticoid receptor at Ser220 | – | –
2 | Clc1ccc(COC(Cn2ccnc2)c2ccc(Cl)cc2Cl)c(Cl)c1 (stereo not drawn) [miconazole] | – | Slight toxicity and a decrease in PLP1 positive cells | independently validated the preclinical efficacy
